# Several values for one entry are separate records, joined by “and”; a condition that tells them apart may be missing. Equal entries are not always repeated.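 Method: 48-hour compound exposure of cells in 96-well plates, five concentrations, linear interpolation of endpoints. Abbreviation: GI50, concentration required for 50% inhibition of growth. The concentration for full growth arrest is given as TGI.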
# Legend:
# Assay in all cases: NCI anticancer screen, dose series, 48 h
# IGROV1 ovarian = system: IGROV1 ovarian
# MDA-MB-231 breast = system: MDA-MB-231 breast
# RPMI-8226 leukemia = system: RPMI-8226 leukemia
# RXF 393 renal = system: RXF 393 renal
# NCI-H460 lung = system: NCI-H460 lung
# OVCAR-4 ovarian = system: OVCAR-4 ovarian
# MALME-3M melanoma = system: MALME-3M melanoma
# HL-60(TB) leukemia = system: HL-60(TB) leukemia
# NCI-H23 lung = system: NCI-H23 lung
# HT29 colon = system: HT29 colon
SMILES,GI50 (IGROV1 ovarian),TGI (IGROV1 ovarian),GI50 (MDA-MB-231 breast),TGI (MDA-MB-231 breast),GI50 (RPMI-8226 leukemia),TGI (RPMI-8226 leukemia),GI50 (RXF 393 renal),TGI (RXF 393 renal),GI50 (NCI-H460 lung),TGI (NCI-H460 lung),GI50 (OVCAR-4 ovarian),TGI (OVCAR-4 ovarian),GI50 (MALME-3M melanoma),TGI (MALME-3M melanoma),GI50 (HL-60(TB) leukemia),TGI (HL-60(TB) leukemia),GI50 (NCI-H23 lung),TGI (NCI-H23 lung),GI50 (HT29 colon),TGI (HT29 colon)
CC(=O)Nc1ccc2c(c1)CN1C(=O)c3ccccc3C1=N2,> 100 µM,> 100 µM,> 100 µM,> 100 µM,> 100 µM,> 100 µM,> 100 µM,> 100 µM,> 100 µM,> 100 µM,> 100 µM,> 100 µM,> 100 µM,> 100 µM,> 100 µM,> 100 µM,> 100 µM,> 100 µM,,
Oc1cccc(-c2nc(N3CCOCC3)c3oc4ncccc4c3n2)c1,0.327 µM and 0.425 µM,1.47 µM and 2.23 µM,0.34 µM and 0.3 µM,54.5 µM and 33.2 µM,0.237 µM and 0.298 µM,> 38.3 µM,0.0796 µM and 0.116 µM,0.361 µM and 0.55 µM,0.359 µM and 0.419 µM,> 100 µM,0.354 µM and 0.228 µM,4.12 µM and 2.9 µM,0.0373 µM and 0.0287 µM,0.395 µM and 0.264 µM,0.117 µM and 0.364 µM,,0.269 µM and 0.292 µM,> 100 µM and 31.4 µM,6.52 µM and 8.37 µM,> 100 µM
O=C(Nc1nc2ccc(F)cc2s1)c1cccnc1Nc1ccc(Cl)cc1Cl,3.66 µM,> 23.6 µM,3.11 µM,14.4 µM,1.49 µM,9.07 µM,3.31 µM,11.7 µM,2.67 µM,12.4 µM,1.57 µM,> 44.5 µM,2.19 µM,12.1 µM,2 µM,5.7 µM,2.28 µM,9.56 µM,2.05 µM,9.75 µM
COc1ccc2c(c1)c(-c1cc(-c3cn(C)c4ccc(OC)cc34)[nH]n1)cn2C,> 100 µM,> 100 µM,> 100 µM,> 100 µM,> 100 µM,> 100 µM,> 100 µM,> 100 µM,> 100 µM,> 100 µM,> 100 µM,> 100 µM,> 100 µM,> 100 µM,> 100 µM,> 100 µM,> 100 µM,> 100 µM,> 100 µM,> 100 µM
CC(=O)OC1Oc2cc(C)c(C)cc2-c2oc(=O)c(-c3ccccc3)cc21 (centres undefined),0.139 µM,0.432 µM,0.584 µM,30.9 µM,0.287 µM,0.969 µM,0.343 µM,37.1 µM,0.338 µM,14.2 µM,3.92 µM,> 100 µM,0.407 µM,> 34.7 µM,0.111 µM,0.467 µM,0.615 µM,> 100 µM,0.323 µM,4.39 µM
N#CC1=C(N)NC(=S)C(C#N)C12Nc1ccccc1S2 (centres undefined),29.3 µM,72.5 µM,11 µM,32.9 µM,61.6 µM,> 100 µM,27.7 µM,57.5 µM,16.7 µM,> 100 µM,,,30.5 µM,84 µM,35.1 µM,> 100 µM,13.4 µM,33.2 µM,29.3 µM,77.7 µM
Cc1ccc(-c2cc(C(Cl)Cl)on2)cc1,> 100 µM,> 100 µM,> 100 µM,> 100 µM,33.8 µM,> 100 µM,> 100 µM,> 100 µM,49.1 µM,> 100 µM,77.6 µM,> 100 µM,> 100 µM,> 100 µM,62.9 µM,> 100 µM,55.3 µM,> 100 µM,26.9 µM,> 100 µM
COc1ccccc1-c1nccc(COc2ccccc2C[C@@H](Oc2ncnc3sc(-c4ccc(F)cc4)c(-c4ccc(OCCN5CCN(C)CC5)c(Cl)c4C)c23)C(=O)O)n1,2.27 µM,6.08 µM,1.61 µM,3.29 µM,< 0.0104 µM,0.285 µM,0.61 µM,2.16 µM,2.09 µM,5.84 µM,3.55 µM,14.6 µM,1.63 µM,3.37 µM,0.0205 µM,0.0524 µM,1.11 µM,3.84 µM,2.65 µM,7.09 µM
O=C1c2c(O)ccc(O)c2C(=O)c2c(NCCNCCO)ccc(NCCNCCO)c21,,1.41 µM and 3.13 µM and 2.21 µM,,1.45 µM and 2.38 µM and 1.11 µM,,1.15 µM and 6.39 µM and 3.55 µM,,0.307 µM and 0.368 µM and 0.493 µM,,0.274 µM and 0.332 µM and 0.484 µM,,2.08 µM and 0.744 µM and 1.4 µM,,1.45 µM and 0.955 µM and 0.974 µM,0.0127 µM,,,,,1.05 µM and 0.761 µM and 3.63 µM
C/C(N=NC(=S)N1CCCCCC1)=C1\C=CC=CN1O,,> 53.8 µM,,> 100 µM,,11.1 µM,,79.5 µM,,31.3 µM,,> 100 µM,,36.4 µM,,1.74 µM,,> 56.2 µM,,> 35.6 µM
CCOc1cccc(/C=N/NC(=O)Cc2ccc(Nc3ccnc(C(F)(F)F)c3)cc2)c1O,2.27 µM,> 100 µM,3.15 µM,> 100 µM,0.519 µM,17.4 µM,3.2 µM,40 µM,1.71 µM,13.5 µM,0.824 µM,> 100 µM,2.13 µM,18.7 µM,1.03 µM,4.22 µM,5.26 µM,> 100 µM,8 µM,78.6 µM
COc1ccc(CNC(=O)c2ccc(-c3cc(-c4nnc(C)o4)ccc3C)cc2)cc1,> 22.6 µM,> 25 µM,> 25 µM,> 25 µM,12.6 µM,> 25 µM,> 25 µM,> 25 µM,> 25 µM,> 25 µM,6.8 µM,> 25 µM,5.37 µM,> 25 µM,> 18.5 µM,> 25 µM,17.4 µM,> 25 µM,> 25 µM,> 25 µM
COc1cccc(C2CC(=O)Nc3cc4c(cc32)CCC4)c1OC (centres undefined),6.49 µM,59.3 µM,6.17 µM,39.5 µM,2.63 µM,14.6 µM,3.34 µM,13.7 µM,3.16 µM,12.3 µM,12.3 µM,98.2 µM,5.98 µM,36 µM,2.73 µM,7.88 µM,3.4 µM,26.1 µM,3.26 µM,12.6 µM
